Experimental data: ChEMBL document CHEMBL3399937, “(18)F-AmBF3-MJ9: a novel radiofluorinated bombesin derivative for prostate cancer imaging” (Bioorg Med Chem, 2015)

Molecular target: Gastrin-releasing peptide receptor (Rattus norvegicus) (UniProt P52500)
Assay: Binding affinity to rat pancreatic acini GRPR

Sequence of Gastrin-releasing peptide receptor (Rattus norvegicus) (P52500 whole entry): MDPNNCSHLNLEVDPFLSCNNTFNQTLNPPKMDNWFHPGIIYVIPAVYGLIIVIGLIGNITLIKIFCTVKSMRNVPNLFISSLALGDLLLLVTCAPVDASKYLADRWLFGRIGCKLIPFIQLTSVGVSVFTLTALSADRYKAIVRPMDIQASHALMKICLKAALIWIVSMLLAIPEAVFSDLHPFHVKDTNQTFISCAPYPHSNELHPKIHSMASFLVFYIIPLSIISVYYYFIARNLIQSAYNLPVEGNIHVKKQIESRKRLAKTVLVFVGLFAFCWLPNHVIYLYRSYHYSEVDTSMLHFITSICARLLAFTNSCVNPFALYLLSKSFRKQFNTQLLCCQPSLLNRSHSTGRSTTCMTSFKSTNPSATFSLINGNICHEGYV

## CC(C)C[C@H](NC(=O)C[C@H](O)[C@H](CC(C)C)NC(=O)[C@H](Cc1cnc[nH]1)NC(=O)CNC(=O)[C@@H](NC(=O)[C@H](C)NC(=O)[C@H](Cc1c[nH]c2ccccc12)NC(=O)[C@H](CCC(N)=O)NC(=O)[C@H](N)Cc1ccccc1)C(C)C)C(N)=O
  Activity: 0.9 nM
